In patent US4766116A, “Diaryl butyric acid derivative and pharmaceutical use thereof” (Suntory Limited, priority 1984, dated 1988):
Structures can show the parent of a compound that is named as a salt.

How the values were obtained:
[1] = system: lipid peroxides in the blood serum; assay: Antilipid Peroxidation Activity (B), lipid peroxides in blood serum of alloxan-injected mice; assay type: in vivo, Male ddY mice; conditions: ip, 24 hours after alloxan 85 mg/kg
Experimental: (B) Male ddY mice having a body weight of 24 to 27 g were used (i.e., 5 to 9 mice in one group). After 16 to 17 hours nestia, 85 mg/kg of alloxan was rapidly injected into the tail vein of the mice. After injecting the alloxan, the mice were subjected to free feeding and free water intaking and, 24 hours later, the sample compound was intraperitoneally injected into the mice. After an additional 24 hours, anesthesia was applied to the mice with ether and the blood of alvine aorta and cava was sampled. The amounts of the lipid peroxides in the blood serum were quantitatively measured according to a Yagi's method (i.e., K. Yagi, Biochem. Med., 15, 212, 1976).
The results were compared with that of a control group to which only a physiological saline was injected.

Male mice = assay: Hemicholinium No. 3 (HC-3) Induced Anoxia Activity (survival time); assay type: in vivo; conditions: Mus musculus; ip, 15 minutes before 5 mg/kg hemicholinium No. 3 into tail vein; read-out: HC-3 Induced Anoxia EDmin (Minimum effective dose)
Experimental: Male mice having a body weight of 22 to 30 g were used (i.e., 7 to 10 mice in one group). The sample compound prepared in the Synthesis Example 1 or 7 was intraperitoneally injected into the mice and, 15 minutes later, 5 mg/kg of hemicholinium No. 3 was injected into the tail vein of the mice. The time from the injection of hemicholinium No. 3 to the termination of breathing by the mice was determined to be the survival time. The results were compared with that of a control group to which only a physiological saline was injected.

rat brain homogenate = assay: Antilipid Peroxidation Activity (A), rat brain homogenate, TBA reaction; assay type: biochemical, Male Wister rats; conditions: at 10^-4 M, 37° C., 30 minutes
Experimental: (A) Male Wister rats having a body weight of 350 to 380 g were used. A rat was decapitated and the whole brain other than the cerebellum was homogenized in 10 times volume of ice cooled 50 mM buffered saline (PBS) having a pH of 7.4. The homogenized mixture was then centrifugally separated and the resultant supernatant frozen at a temperature of -30° C. The frozen specimen was melted in flowing water and was then diluted with 3 times volume PBS to prepare the diluted homogenate.
A 10 μl of a solution of the sample compound prepared in the Synthesis Example 1 or 7 was added to 1 ml of the diluted homogenate obtained above and the mixture was incubated at a temperature of 37° C. for 30 minutes. […]
As is the case of the test compound solution, 10 μl of the standard solution of tetramethoxypropane (TMP) was prepared and was added to the reaction mixture in amounts of 0 to 10 nmole/tube. […] Thereafter, the resultant layers were stabilized for 10 minutes at 2,000 rpm and the absorbance of the organic layer at 532 nm or the fluorescence intensity of the organic layer at 553 nm (excited at 515 nm) were determined. The lipid peroxide content was determined and represented a nmole number of malon dialdehyde (MDA) per mg of protein. The protein was determined by a Lawry method (i.e., Lawry et al., J. Biol. Chem., 193, 265 (1951)).

Male ddY mice [2] = assay: Hypobaric Hypoxia Activity (survival time at 180 mmHg); assay type: in vivo
Experimental: Male ddY mice having a body weight of 22 to 30 g were used (i.e., 7 to 10 mice in one group). The mice were […] sample compound prepared in the Synthesis Example 1 or 7 was intraperitoneally injected into the mice. The desiccator was evacuated 30 minutes after the injection and the time from the start of the evacuation to the termination of breathing by the mice was determined to be the survival time. If a mouse was still alive 15 minutes after exposure to the hypoxia, the survival time was assumed to be 15 minutes.

Male ddY mice [3] = assay: Global Ischemia Activity (gasping time after decapitation); assay type: in vivo; conditions: for extension of the gasping time: at a dose of 50 mg/kg or less, injected
Experimental: Male ddY mice having a body weight of 22 to 30 g were used (i.e., 6 mice in one group). The sample compound prepared in the Synthesis Example 1 or 7 was intraperitoneally injected into the mice and the mice were decapitated 30 minutes after the injection. After decapitation, the gasping times were determined. The results were compared with a control group to which only the saline was injected.

Male ddY mice [4] = assay: Normobaric Hypoxia Activity (survival time in 96% N2 and 4% O2); assay type: in vivo; conditions: ip, 30 minutes before
Experimental: Male ddY mice having a body weight of 22 to 30 g were used (i.e., 7 to 10 mice in one group). The sample compound prepared in the Synthesis Example 1 or 7 was intraperitoneally injected into the mice and, 30 minutes later, the mice were placed in a desiccator having a volume of about 1 liter and filled with a gas mixture of 96% N2 and 4% O2. The survival time up to the termination of breathing by the mice was determined. During the test, the N2 --O2 gas mixture was continuously supplied at a rate of 3 l/min. When the survival time was more than 15 minutes, the survival time was assumed to be 15 minutes. The results were compared with a control group, to which only a physiological saline was injected.

Male ddY mice [5] = assay: Scopolamine Amnesia Activity (step-through passive avoidance learning); assay type: in vivo; conditions: Mus musculus; ip immediately after first session; scopolamine 0.5 mg/kg hypodermically; retention test 24 hours later; read-out: Scopolamine Amnesia EDmin (Minimum effective dose)
Text: Ten male ddY mice having a body weight of 22 to 30 g were used as one group. A slit was located between a light room and a dark room. In the dark room, an arrangement was made whereby an electric shock was given to the feet by an electric current. Thus, the behavior of the mice in relation to step-through to the dark room was studied. The mice were amnesically treated with an administration of scopolamine with or without the injection of the sample compound 1 or 7 and the time taken to avoid step-through by the mice to the dark room was determined by the so-called step-through passive avoidance learning method. The electric current used was 0.6 mA. The scopolamine was hypodermically injected in an amount of 0.5 mg/kg at 20 minutes prior to the first session and the sample compound was intraperitoneally injected immediately after the first session. The retention test (i.e., the second session) was carried out 24 hours later.

COc1ccc(O)c(C(CCC(=O)N2CCCC2)c2ccccc2)c1 (stereo not drawn) [Example 13]
inhibition of the formation of the lipid peroxides ([1]; at a dose of 50 mg/kg): significant difference in the inhibition of the formation of the lipid peroxides

COc1ccc(O)c(C(CCC(=O)N2CCCN(C(=O)CCC(c3ccccc3)c3cc(OC)ccc3O)CC2)c2ccccc2)c1 (stereo not drawn) [Example 31, N,N'-bis-[(4-(2-hydroxy-5-methoxy)phenyl-4-phenyl)-1-oxobutyl]homopiperazine]
inhibition of the formation of the lipid peroxides ([1]; at a dose of 50 mg/kg): significant difference in the inhibition of the formation of the lipid peroxides

COc1ccc(O)c(C(CCC(=O)OCCN(C)C)c2ccccc2)c1 (stereo not drawn) [Example 36, 4-(2-hydroxy-5-methoxy)phenyl-4-phenyl-1-(2-dimethylamino)ethyloxy-1-oxybutane]
inhibition of the formation of the lipid peroxides ([1]; at a dose of 10 mg/kg): caused inhibition

COc1ccc(O)c(C(CCC(=O)N2CCN(CCO)CC2)c2ccccc2)c1 (stereo not drawn) [Example 7]
minimal effective dose (Male mice): 25 mg/kg | Antilipid Peroxidation, % inhibition of the rat brain homogenate (rat brain homogenate): 88.0% | minimal effective dose (Male ddY mice [2]; Mus musculus, ip, 30 minutes before evacuation to 180 mmHg, vs physiological saline, read-out: Hypobaric Hypoxia EDmin (Minimum effective dose)): 50 mg/kg | minimal effective dose (Male ddY mice [3]; Mus musculus, ip, 30 minutes before decapitation, vs saline control, read-out: Global Ischemia EDmin (Minimum effective dose)): 50 mg/kg | Normobaric Hypoxia EDmin (Minimum effective dose) (Male ddY mice [4]): Inactive at 50 mg/kg, ip | minimal effective dose (Male ddY mice [5]): 25 mg/kg

COc1ccc(O)c(C(CCC(=O)NCCN2CCNCC2)c2ccccc2)c1 (stereo not drawn) [Example 32]
extension of the gasping time (Male ddY mice [3]): significant difference in the extension of the gasping time

COc1ccc(O)c(C(CCC(=O)NCc2ccccn2)c2ccccc2)c1 (stereo not drawn) [Example 9]
inhibition of the formation of the lipid peroxides ([1]; at a dose of 10 mg/kg): caused inhibition

COc1ccc(O)c(C(CCC(=O)N2CCCNCC2)c2ccccc2)c1 (stereo not drawn) [Example 30, 4-(2-hydroxy-5-methoxy)phenyl-4-phenyl-1-homopiperazinyl-1-oxobutane]
extension of the gasping time (Male ddY mice [3]): significant difference in the extension of the gasping time

COc1ccc(O)c(C(CCC(=O)N2CCNCC2)c2ccccc2)c1 (stereo not drawn) [Example 28, 4-(2-hydroxy-5-methoxy)phenyl-4-phenyl-1-piperazinyl-1-oxobutane]
inhibition of the formation of the lipid peroxides ([1]; at a dose of 50 mg/kg): significant difference in the inhibition of the formation of the lipid peroxides

COc1ccc(O)c(C(CCC(=O)N2CCN(C(=O)CCC(c3ccccc3)c3cc(OC)ccc3O)CC2)c2ccccc2)c1 (stereo not drawn) [Example 29, N,N'-bis[(4-(2-hydroxy-5-methoxy)phenyl-4-phenyl)-1-oxobutyl]piperazine]
inhibition of the formation of the lipid peroxides ([1]; at a dose of 10 mg/kg): caused inhibition

COc1ccc(O)c(C(CCC(=O)N2CCCCC2)c2ccccc2)c1 (stereo not drawn) [Example 3]
inhibition of the formation of the lipid peroxides ([1]; at a dose of 50 mg/kg): significant difference in the inhibition of the formation of the lipid peroxides

COc1ccc(O)c(C(CCC(=O)NN2CCOCC2)c2ccccc2)c1 (stereo not drawn) [Example 12]
inhibition of the formation of the lipid peroxides ([1]; at a dose of 50 mg/kg): significant difference in the inhibition of the formation of the lipid peroxides

COc1ccc(O)c(C(CCC(=O)NCCN2CCCCC2)c2ccccc2)c1 (stereo not drawn) [Example 19, 4-(2-hydroxy-5-methoxy)phenyl-4-phenyl-1-(2-piperidinyl)ethylamino-1-oxobutane hydrochloride]
survival time (hypobaric hypoxia) compared with the control group (Male ddY mice [2]; dose not clearly stated): reduced the survival time | extension of the gasping time (Male ddY mice [3]): significant difference in the extension of the gasping time

COc1ccc(O)c(C(CCC(=O)NCCN2CCN(C(=O)CCC(c3ccccc3)c3cc(OC)ccc3O)CC2)c2ccccc2)c1 (stereo not drawn) [Example 33, 4-(2-hydroxy-5-methoxy)phenyl-1-[4-(2-(4-(2-hydroxy-5-methoxy)phenyl-4-phenyl-1-oxo)aminoethyl)piperadinyl]-1-oxobutane]
extension of the survival time (hypobaric hypoxia) (Male ddY mice [2]; at a dose of 50 mg/kg or less, injected): significant difference in the extension of the survival time | extension of the gasping time (Male ddY mice [3]): significant difference in the extension of the gasping time | inhibition of the formation of the lipid peroxides ([1]; at a dose of 50 mg/kg): significant difference in the inhibition of the formation of the lipid peroxides

COc1ccc(O)c(C(CCC(=O)N2CCN(c3ccccc3)CC2)c2ccccc2)c1 (stereo not drawn) [Example 4]
inhibition of the formation of the lipid peroxides ([1]; at a dose of 10 mg/kg): caused inhibition

COc1ccc(O)c(C(CCC(=O)N2CCCN(C)CC2)c2ccccc2)c1 (stereo not drawn) [Example 18]
inhibition of the formation of the lipid peroxides ([1]; at a dose of 50 mg/kg): significant difference in the inhibition of the formation of the lipid peroxides

CCOC(=O)c1ccc(Oc2cccc(OC)c2)c(NC(=O)CCC(c2ccccc2)c2cc(OC)ccc2O)c1 (stereo not drawn) [Example 15]
extension of the gasping time (Male ddY mice [3]): significant difference in the extension of the gasping time

COc1ccc(O)c(C(CCC(=O)N2CCSCC2)c2ccccc2)c1 (stereo not drawn) [Example 8]
inhibition of the formation of the lipid peroxides ([1]; at a dose of 5 mg/kg): caused inhibition

COc1ccc(O)c(C(CCC(=O)N(C)Cc2ccccc2)c2ccccc2)c1 (stereo not drawn) [Example 6]
extension of the gasping time (Male ddY mice [3]): significant difference in the extension of the gasping time | inhibition of the formation of the lipid peroxides ([1]; at a dose of 10 mg/kg): caused inhibition
